Source: patent publication US10844017B2, “Biaryl compound, preparation method and use thereof” (FUDAN UNIVERSITY, priority 2017, dated 2020)

What was measured:
[1] = test system: Mouse lymphoma EL4 cells transfected with RORγt plasmid; experiment: Determination of the activation rate on mouse lymphoma EL4 (IL-17 generation); assay type: cell-based; conditions: compound at 2 μM, 24 hours, PMA/ionomycin stimulation 4 hours, flow cytometry, read-out: +act % (activation of IL-17 generated by EL4 cells)
Method: Determination of the Activation Rate on Mouse Lymphoma EL4
Mouse lymphoma EL4 cells transfected with RORγt plasmid were cultured at 37° C. under an atmosphere with 5% CO2, with a test compound added simultaneously. After 24 hours, the generation efficiency of IL-17A was analyzed. Before collection of cells, PMA at 50 ng/mL and ionomycin at 500 ng/mL were added for stimulation for 4 hours. The proportion of IL-17 was detected by intracellular staining and flow cytometry. […] The activation rate of IL-17 generated by EL4 cells for the compound was measured at a concentration of 2 μM.

[2] = target: T1, RORγ receptor (B-RORγ LBD / Bioin-SRC1) (Homo sapiens, UniProt P51449); experiment: Determination of agonistic activities on RORγ receptors in vitro (dual FRET); assay type: biochemical; conditions: average of at least two independent experiments
T1 construct: 40 nM B-RORγ LBD solution
T1 sequence (P51449 269-508 limits assumed): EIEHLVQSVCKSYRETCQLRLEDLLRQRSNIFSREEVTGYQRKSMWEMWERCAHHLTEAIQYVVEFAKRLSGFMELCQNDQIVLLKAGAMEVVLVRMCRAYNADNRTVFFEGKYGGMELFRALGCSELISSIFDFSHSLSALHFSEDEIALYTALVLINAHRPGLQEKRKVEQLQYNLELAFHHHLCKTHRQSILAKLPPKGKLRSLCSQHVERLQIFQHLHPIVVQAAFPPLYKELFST
T1 sequence (Q15788 676-700 partner limits assumed): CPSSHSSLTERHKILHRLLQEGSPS
Method: Determination of Agonistic Activities of Compounds on RORγ Receptors In Vitro The agonistic activities of compounds described herein on RORγ receptor were determined by dual fluorescence resonance energy transfer (dual FRET) experiments. The agonistic activity was expressed by half maximum effect concentration (EC50).
1) Preparation of RORγ Assay Buffer
100 mL of buffer solution was well mixed with […] DTT for use.
2) Preparation of Solutions of Compounds
3) Preparation of protein mixtures a) 40 nM B-RORγ LBD solution was mixed well with 20 nM SA-APC solution and incubated for 15 minutes at room temperature. Then the resulting mixture was further mixed well with 400 nM Biotin and incubated for another 10 minutes at room temperature. […]
b) 40 nM Bioin-SRC1 solution was mixed well with 10 nM SA-eu solution and was incubated for 15 minutes at room temperature. Then the resulting mixture was further mixed well with 200 nM Biotin and was incubated for another 10 minutes at room temperature. […]
d) A mixture (25 μL) of B-RORγ LBD/SA-APC and Bioin-SRC1/SA-eu together with a test compound was added to one of the wells of a 384-well plate, and then the plate was centrifuged for one minute at 1000 rpm, and incubated at room temperature for one hour. The data were read on an Envision microplate detector and EC50 values were calculated.

[3] = test system: Mouse spleen CD4+T cells differentiated into Th17 cells; experiment: Mouse Th17 cell differentiation, half-maximal effect concentration; assay type: cell-based; conditions: 96 hours, proportion of IL-17 by intracellular staining and flow cytometry
Method: Determination of the Half-Maximal Effect Concentration of Mouse Th17 Cell Differentiation
Experimental methods: Mouse spleen CD4^+T cells were separated and differentiated into Th17 cells. CD4^+T cells were cultured in the environment containing anti-CD3 (0.25 μg/mL), anti-CD28 (1 μg/mL), anti-IL4 (2 μg/mL), anti-IFN-γ (2 μg/mL), TGF-β (5 ng/mL), and IL6 (20 ng/mL), with a test compound added at the same time. After 96 hours, the differentiation efficiency of Th17 was analyzed. Before collection of cells, PMA at 50 ng/mL and ionomycin at 500 ng/mL were added for stimulation for 4 hours, and the proportion of IL-17 was detected by intracellular staining and flow cytometry. Meanwhile, we used Live/Dead Cell Dye (Invitrogen) staining method to analyze the cell survival rate and to judge whether the drug had toxicity to cells, and determined the half-maximal effect concentration EC50 of the compounds.

| EC50 [2] | SMILES | activation at 2 µM [1] | EC50 [3] |
| --- | --- | --- | --- |
| – | CCS(=O)(=O)c1ccc(CC(=O)Nc2cc(Cl)c(-c3ccc(C=C(C)C)c(C#N)c3)c(Cl)c2)cc1 [Example 40, N-(2,6-Dichloro-3′-cyano-4′-(2-methylprop-1-en-1-yl)-[1,1′-biphenyl]-4-yl)-2-(4-(ethylsulfonyl)phenyl)acetamide] | > 50% | – |
| 10 to 50 nM | CC(C)Cc1ccc(-c2c(Cl)cc(NC(=O)C3CCCCC3)cc2Cl)cc1C#N [Example 2, N-(2,6-Dichloro-3′-cyano-4′-isobutyl-[1,1′-biphenyl]-4-yl)cyclohexanecarboxamide] | 20 to 50% | – |
| – | CCS(=O)(=O)c1ccc(CNC(=O)c2cc(Cl)c(-c3ccc(CC(C)C)c(C#N)c3)c(Cl)c2)cc1 [Example 47] | < 20% | – |
| – | CCS(=O)(=O)c1ccc(CC(=O)Nc2cc(Cl)c(-c3ccc(CN(C)C)c(C#N)c3)c(Cl)c2)cc1 [Example 35, N-(2,6-Dichloro-3′-cyano-4′-((dimethylamino)methyl)-[1,1′-biphenyl]-4-yl)-2-(4-(ethylsulfonyl)phenyl)acetamide] | > 50% | – |
| – | CCC(C)Cc1ccc(-c2c(Cl)cc(NC(=O)Cc3ccc(S(=O)(=O)CC)cc3)cc2Cl)cc1C#N (centres unmarked) [Example 41, N-(2,6-Dichloro-3′-cyano-4′-(2-methylbutyl)-[1,1′-biphenyl]-4-yl)-2-(4-(ethylsulfonyl)phenyl)acetamide] | – | > 150 nM |
| 10 to 50 nM | CC(C)Cc1ccc(-c2c(Cl)cc(NC(=O)CC3CCOCC3)cc2Cl)cc1C#N [Example 6, N-(2,6-Dichloro-3′-cyano-4′-isobutyl-[1,1′-biphenyl]-4-yl)-2-(tetrahydro-2H-pyran-4-yl) acetamide] | 20 to 50% | – |
| 10 to 50 nM | CC(C)Cc1ccc(-c2c(Cl)cc(NC(=O)Cc3ccccc3C#N)cc2Cl)cc1C#N [Example 11, 2-(2-Cyanophenyl)-N-(2,6-dichloro-3′-cyano-4′-isobutyl-[1,1′-biphenyl]-4-yl)acetamide] | < 20% | – |
| – | CCS(=O)(=O)c1ccc(CC(=O)Nc2cc(Cl)c(-c3ccc(OC(C)C)c(C#N)c3)c(Cl)c2)cc1 [Example 32, N-(2,6-Dichloro-3′-cyano-4′-isopropoxy-[1,1′-biphenyl]-4-yl)-2-(4-(ethylsulfonyl)phenyl)acetamide] | – | < 50 nM |
| < 10 nM | CCS(=O)(=O)c1ccc(CCNc2cc(Cl)c(-c3ccc(CN(C)C)c(C#N)c3)c(Cl)c2)cc1 [Example 62, 2′,6′-Dichloro-4-((dimethylamino)methyl)-4′((4-(ethylsulfonyl)phenethyl)amino)-[1,1′-biphenyl]-3-carbonitrile] | 20 to 50% | – |
| < 10 nM | CC(C)Cc1ccc(-c2c(Cl)cc(NC(=O)Cc3ccc(C(=O)O)cc3)cc2Cl)cc1C#N [Example 24, 4-(2-((2,6-Dichloro-3′-cyano-4′-isobutyl-[1,1′-biphenyl]-4-yl)amino)-2-oxoethyl)benzoic acid] | < 20% | – |
| 10 to 50 nM | CCS(=O)(=O)c1ccc(CC(=O)Nc2cc(Cl)c(-c3ccc(CC(C)C)cc3)c(Cl)c2)cc1 [Example 26, N-(2,6-Dichloro-4′-isobutyl-[1,1′-biphenyl]-4-yl)-2-(4-(ethylsulfonyl)phenyl)acetamide] | < 20% | – |
| 10 to 50 nM | CCS(=O)(=O)c1ccc(CNC(=O)Nc2cc(Cl)c(-c3ccc(CC(C)C)c(C#N)c3)c(Cl)c2)nc1 [Example 55, 1-(2,6-Dichloro-3′-cyano-4′-isobutyl-[1,1′-biphenyl]-4-yl)-3-((5-(ethylsulfonyl)pyridin-2-yl)methyl)urea] | 20 to 50% | – |
| 50 to 100 nM | CCS(=O)(=O)c1ccc(CNC(=O)c2cc(Cl)c(-c3ccc(CC(C)C)c(C#N)c3)c(Cl)c2)nc1 [Example 49, 2,6-Dichloro-3′-cyano-N-((5-(ethylsulfonyl)pyridin-2-yl)methyl)-4′-isobutyl-[1,1′-biphenyl]-4-carboxamide] | < 20% | – |
| 10 to 50 nM | CCN(CC)Cc1ccc(-c2c(Cl)cc(NC(=O)Cc3ccc(S(C)(=O)=O)cc3)cc2Cl)cc1C#N [Example 33, N-(2,6-Dichloro-3′-cyano-4′-((diethylamino)methyl)-[1,1′-biphenyl]-4-yl)-2-(4-(methylsulfonyl)phenyl)acetamide] | 20 to 50% | – |
| 10 to 50 nM | CCN(CC)Cc1ccc(-c2c(Cl)cc(NC(=O)Cc3ccc(S(=O)(=O)CC)cc3)cc2Cl)cc1C#N [Example 37, N-(2,6-Dichloro-3′-cyano-4′-((diethylamino)methyl)-[1,1′-biphenyl]-4-yl)-2-(4-(ethylsulfonyl)phenyl)acetamide] | 20 to 50% | – |
| – | CCS(=O)(=O)c1ccc(CNC(=O)Nc2cc(Cl)c(-c3ccc(CC(C)C)c(C#N)c3)c(Cl)c2)cc1 [Example 53, 1-(2,6-Dichloro-3′-cyano-4′-isobutyl-[1,1′-biphenyl]-4-yl)-3-(4-(ethylsulfonyl)benzyl)urea] | 20 to 50% | – |
| 10 to 50 nM | CCS(=O)(=O)c1ccc(CCNc2cc(Cl)c(-c3ccc(CC(C)C)c(C#N)c3)c(Cl)c2)cc1 [Example 60, 2′,6′-Dichloro-4′-((4-(ethylsulfonyl)phenethyl)amino)-4-isobutyl-[1,1′-biphenyl]-3-carbonitrile] | 20 to 50% | – |
| 10 to 50 nM | CC(C)Cc1ccc(-c2c(Cl)cc(NC(=O)Cc3ccccn3)cc2Cl)cc1C#N [Example 13, N-(2,6-Dichloro-3′-cyano-4′-isobutyl-[1,1′-biphenyl]-4-yl)-2-(pyridin-2-yl)acetamide] | < 20% | – |
| 10 to 50 nM | CN(C)Cc1ccc(-c2c(Cl)cc(NC(=O)Cc3ccc(S(C)(=O)=O)cc3)cc2Cl)cc1C#N [Example 34, N-(2,6-Dichloro-3′-cyano-4′-((dimethylamino)methyl)-[1,1′-biphenyl]-4-yl)-2-(4-(methylsulfonyl)phenyl)acetamide] | > 50% | – |
| 10 to 50 nM | CCS(=O)(=O)c1ccc(CNC(=O)Nc2cc(Cl)c(-c3ccc(CN(C)C)c(C#N)c3)c(Cl)c2)cc1 [Example 58, 1-(2,6-Dichloro-3′-cyano-4′-((dimethylamino)methyl)-[1,1′-biphenyl]-4-yl)-3-(4-(ethylsulfonyl)benzyl)urea] | 20 to 50% | – |
| – | CCS(=O)(=O)c1ccc(CC(=O)Nc2cc(Cl)c(-c3ccc(CC4CCC4)c(C#N)c3)c(Cl)c2)cc1 [Example 43, (N-(2,6-Dichloro-3′-cyano-4′-(cyclobutylmethyl)-[1,1′-biphenyl]-4-yl)-2-(4-(ethylsulfonyl)phenyl)acetamide)] | – | 50 to 150 nM |
| 10 to 50 nM | CC(C)Cc1ccc(-c2c(Cl)cc(NC(=O)Cc3ccn(C)n3)cc2Cl)cc1C#N [Example 9A, N-(2,6-Dichloro-3′-cyano-4′-isobutyl-[1,1′-biphenyl]-4-yl)-2-(1-methyl-1H-pyrazol-3-yl)acetamide] | < 20% | – |
| 10 to 50 nM | CC(C)Cc1ccc(-c2c(Cl)cc(NC(=O)CC3CCCCC3)cc2Cl)cc1C#N [Example 5, (2-Cyclohexyl-N-(2,6-dichloro-3′-cyano-4′-isobutyl-[1,1′-biphenyl]-4-yl)acetamide)] | < 20% | – |
| 10 to 50 nM | CCS(=O)(=O)c1ccc(CC(=O)Nc2cc(Cl)c(-c3ccc(CC(C)C)cc3C#N)c(Cl)c2)cc1 [Example 28, N-(2,6-dichloro-2′-cyano-4′-isobutyl-[1,1′-biphenyl]-4-yl)-2-(4-(ethylsulfonyl)phenyl)acetamide] | – | – |
| 10 to 50 nM | CCS(=O)(=O)c1ccc(CC(=O)Nc2ccc(-c3ccc(CC(C)C)cc3OC(F)(F)F)c(Cl)c2)cc1 [Example 30, N-(2-Chloro-4′-isobutyl-2′-(trifluoromethoxy)-[1,1′-biphenyl]-4-yl)-2-(4-(ethylsulfonyl)phenyl)acetamide] | – | – |
